Laboratory results as given in article PMC5796995 (Oncotarget, 2017).

Key:
plasma proteins = assay type: in vitro ADME; settings: human
HepG2 cells [1] = assay type: cell-based, human
HepaRG cells [2] = assay type: cell-based, human
[3] = tested on: hepatic microsomal enzymes; assay type: in vitro ADME, rat
HepaRG cells [4] = assay type: cell-based, human; remark: listed apart in the source
HepG2 cells [5] = assay type: cell-based, human; remark: listed apart in the source
[6] = tested on: Salmonella typhimurium (TA100); assay type: cell-based
calf thymus DNA = assay type: biochemical
[7] = assay type: physicochemical; settings: pH 7
Protocol: Individual standards of AFB1, AFB2a, and AFB2a-Arg were prepared in deionized water (pH 7) at a concentration of 300 ng/mL each. Aliquots of 300 μL of each aqueous standard were added to 300 μL of 1-octanol. Solutions were shaken at 1800 rpm for 5 min and then allowed to equilibrate for an additional 30 minutes. Aqueous and organic layers for each sample were separated and analyzed by HPLC-MS. Octanol-water partition coefficients (P) were calculated as follows: P=[Peak area in octanol fraction]/[Peak area in aqueous fraction]

Caco-2 monolayers = assay type: in vitro ADME
Protocol: Assay plates containing 12 wells of 21-day Caco-2 monolayers were provided by MB Biosciences. Monolayer integrity was verified using transepithelial electrical resistance measurements (TEER) prior to assay. Treatment solutions of AFB1, AFB2a, and AFB2a-Arg were prepared in the provided Hank's buffered salt solution (HBSS) with a pH of 7.4 and a final DMSO concentration of 0.2%. Caco-2 monolayers were first rinsed with HBSS and then the apical chamber was filled with 500 μL of test compound solution while the basal chamber was filled with 1500 μL of blank HBSS (both chambers were kept at pH 7.4). Plates were incubated at 37°C for 2 hours to allow compound equilibration. Compound concentration was measured at t = 0 hrs and t = 2 hours by HPLC-MS. Permeability (Papp) was calculated as follows: Papp=dQ/dt×1/A×C0
Where dQ/dt is the amount of translocated material over incubation time (nmol/s), A is the area of the insert (cm^2), and C0 is the initial concentration of the test compound applied. […] ER was calculated as follows: ER=Papp(Basal→Apical)/Papp(Apical→Basal)

COc1cc2c(c3oc(=O)c4c(c13)CCC4=O)C1C=COC1O2 (stereo not drawn) [AFB1, aflatoxin B1, reference compound]
plasma protein bound (plasma proteins): 82%
number of micronuclei (HepG2 cells [1]): significant increase in the number of micronuclei
concentrations that significantly reduced the percentage of viable cells (HepaRG cells [2]): > 3.75 µM
degraded by hepatic microsomal enzymes [3]: approximately 75%
number of micronuclei (HepaRG cells [4]): significant increase in the number of micronuclei
concentrations that significantly reduced the percentage of viable cells (HepG2 cells [5]): > 7.5 µM
number of revertant wells (mutagenic response) [6]: significant increase in the number of revertant wells
DNA adduct formation (calf thymus DNA): presence of DNA adduction

COc1cc(O)c(-c2ccn(C(CCCNC(=N)N)C(=O)O)c2)c2oc(=O)c3c(c12)CCC3=O (stereo not drawn) [AFB2a-Arg, aflatoxin B2a-arginine]
plasma protein bound (plasma proteins): 99%
concentrations without increase in micronuclei formation (HepG2 cells [1]): ≤ 60 µM
number of micronuclei (HepG2 cells [1]): did not show this genotoxic marker
concentrations that significantly reduced the percentage of viable cells (HepaRG cells [2]): no significant decreases in cell viability
degraded by hepatic microsomal enzymes [3]: not significantly degraded
concentrations without increase in micronuclei formation (HepaRG cells [4]): ≤ 60 µM
number of micronuclei (HepaRG cells [4]): did not show this genotoxic marker
concentrations that significantly reduced the percentage of viable cells (HepG2 cells [5]): no significant decreases in cell viability
number of revertant wells (mutagenic response) [6]: did not show any significant differences from the vehicle
DNA adduct formation (calf thymus DNA): no additional peaks were discovered
octanol-water partition coefficient [7]: lower partition coefficient than AFB1 or AFB2a
efflux ratio, comparison (Caco-2 monolayers): significantly higher efflux ratio than AFB1
intestinal permeability (Papp), comparison (Caco-2 monolayers; pH 7.4): significantly lower than AFB1
